Numbered stars: 1 amine (or outer) side, 2 acyl side, 3 side chain; on linkers, the order of the positions; unused ones are H or OH. Bridge positions count the residues as written; N and C are the ends. Square brackets hold non-standard residues; d marks the D form. Peptide text beside a SMILES is read from it. * marks the point of attachment. C20 diacid = O=C(O)CCCCCCCCCCCCCCCCCCC(=O)*; C18 diacid = O=C(O)CCCCCCCCCCCCCCCCC(=O)*; γGlu = O=C(O)[C@H](CCC(=O)[*:2])N[*:1]; NMeI = CC[C@H](C)[C@H](NC)C(=O)O; Sar = CNCC(=O)O
Assays:
[1] = molecular target: T1, human calcitonin receptor (hCTR2) (Homo sapiens, UniProt P30988); assay: hCTR2 assay: induction of cAMP (AlphaScreen cAMP Assay kit) in COS7 cells expressing hCTR2; assay type: cell-based
T1 construct: expressed in transfected cells
T1 sequence (P30988 25-474): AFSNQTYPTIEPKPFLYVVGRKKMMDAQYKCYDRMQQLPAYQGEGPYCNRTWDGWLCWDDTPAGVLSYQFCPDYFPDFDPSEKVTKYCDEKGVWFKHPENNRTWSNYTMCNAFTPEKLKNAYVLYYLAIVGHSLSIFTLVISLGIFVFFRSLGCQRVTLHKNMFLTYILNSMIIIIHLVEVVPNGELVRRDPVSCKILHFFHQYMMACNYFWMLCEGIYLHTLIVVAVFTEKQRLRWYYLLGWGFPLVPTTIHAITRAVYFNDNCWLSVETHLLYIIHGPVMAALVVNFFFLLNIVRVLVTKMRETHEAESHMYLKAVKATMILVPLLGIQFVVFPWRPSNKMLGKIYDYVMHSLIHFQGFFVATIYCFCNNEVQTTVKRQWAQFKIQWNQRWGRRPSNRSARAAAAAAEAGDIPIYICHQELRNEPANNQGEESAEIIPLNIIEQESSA
How it was run: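 cAMP induction was measured by AlphaScreen in COS7 cells stably expressing hCTR2 without RAMPs, after 15 min at 37° C with increasing peptide concentrations, 100 µM IBMX and 0.1% casein (Tyrode, pH 7.4). A 4-parameter logistic fit gave EC50 and % efficacy versus pramlintide.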

[2] = Solubility assessment (turbidity absorbance at 325 nm); assay type: physicochemical; details: stock 2 mg/ml diluted 1:1, ambient temperature (typically 25°C), n=1; for Solubility, Acetate buffer pH 4: 100 mM acetate buffer pH 4.0; for Solubility, Acetate buffer pH 5: 100 mM acetate buffer pH 5.0; for Solubility, Histidine buffer pH 6: 100 mM histidine buffer pH 6.0; for Solubility, Histidine buffer pH 7: 100 mM histidine buffer pH 7.0; for Solubility, Phosphate buffer pH 6: 100 mM phosphate buffer pH 6.0; for Solubility, Phosphate buffer pH 7: 100 mM phosphate buffer pH 7.0; for Solubility, Phosphate buffer pH 7.5: 100 mM phosphate buffer pH7.5
How it was run: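 Turbidimetric screen across pH 4.0–7.5 in 100 mM acetate, histidine and phosphate buffers. A 2 mg/ml peptide stock (pH 2.5) was diluted 1:1 into each, then A325 measured at ambient temperature; values ≤ 0.02 AU denoted solubility of 1 mg/ml or more.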

Structure (SMILES)	EC50 [1]	Solubility, Acetate buffer pH 4 [2]	Solubility, Acetate buffer pH 5 [2]	Solubility, Histidine buffer pH 6 [2]	Solubility, Histidine buffer pH 7 [2]	Solubility, Phosphate buffer pH 6 [2]	Solubility, Phosphate buffer pH 7 [2]	Solubility, Phosphate buffer pH 7.5 [2]
CC[C@H](C)[C@@H](C(=O)N[C@@H](CC(C)C)C(=O)N[C@@H](CO)C(=O)N[C@@H](CO)C(=O)N[C@H](C(=O)N[C@@H](CC(N)=O)C(=O)N[C@H](C(=O)NCC(=O)N[C@@H](CO)C(=O)N[C@@H](CC(N)=O)C(=O)N[C@H](C(=O)N1CCC[C@H]1C(N)=O)[C@@H](C)O)C(C)C)[C@@H](C)O)N(C)C(=O)[C@H](C)NC(=O)CN(C)C(=O)[C@H](Cc1ccccc1)NC(=O)[C@H](CC(N)=O)NC(=O)[C@H](CC(N)=O)NC(=O)[C@H](CO)NC(=O)[C@H](CO)NC(=O)[C@H](CCCNC(=N)N)NC(=O)[C@H](Cc1c[nH]cn1)NC(=O)[C@H](CC(C)C)NC(=O)[C@H](Cc1ccccc1)NC(=O)[C@H](CCC(=O)O)NC(=O)[C@H](C)NC(=O)[C@H](CC(C)C)NC(=O)[C@H](CCCNC(=N)N)NC(=O)[C@H](CCC(N)=O)NC(=O)[C@@H](NC(=O)[C@H](C)NC(=O)[C@@H]1CSSC[C@H](NC(=O)[C@H](CCCNC(=N)N)NC(=O)[C@H](Cc2c[nH]cn2)NC(=O)CC[C@H](NC(=O)CCCCCCCCCCCCCCCCCCC(=O)O)C(=O)O)C(=O)N[C@@H](CC(N)=O)C(=O)N[C@@H]([C@@H](C)O)C(=O)N[C@@H](C)C(=O)N[C@@H]([C@@H](C)O)C(=O)N1)[C@@H](C)O [Compound 85, [19CD]-isoGlu-HRC()NTATC()ATQRLAEFLHRSSNNF-Gly(Me)-A-Ile(Me)-LSSTNVGSNTP-NH2] ({C20 diacid-γGlu}-HRCNTATCATQRLAEFLHRSSNNF[Sar]A[NMeI]LSSTNVGSNTP-NH2; disulfide 3-8)	0.083 nM	SS (SS indicates solubility ≥ 1mg/ml)	SS (SS indicates solubility ≥ 1mg/ml)	SS (SS indicates solubility ≥ 1mg/ml)	SS (SS indicates solubility ≥ 1mg/ml)	SS (SS indicates solubility ≥ 1mg/ml)	SS (SS indicates solubility ≥ 1mg/ml)	SS (SS indicates solubility ≥ 1mg/ml)
CC[C@H](C)[C@@H](C(=O)N[C@@H](CC(C)C)C(=O)N[C@@H](CO)C(=O)N[C@@H](CO)C(=O)N[C@H](C(=O)N[C@@H](CC(N)=O)C(=O)N[C@H](C(=O)NCC(=O)N[C@@H](CO)C(=O)N[C@@H](CC(N)=O)C(=O)N[C@H](C(=O)N1CCC[C@H]1C(N)=O)[C@@H](C)O)C(C)C)[C@@H](C)O)N(C)C(=O)[C@H](C)NC(=O)CN(C)C(=O)[C@H](Cc1ccccc1)NC(=O)[C@H](CC(N)=O)NC(=O)[C@H](CC(N)=O)NC(=O)[C@H](CO)NC(=O)[C@H](CO)NC(=O)[C@H](CCCNC(=N)N)NC(=O)[C@H](Cc1c[nH]cn1)NC(=O)[C@H](CC(C)C)NC(=O)[C@H](Cc1ccccc1)NC(=O)[C@H](CCC(=O)O)NC(=O)[C@H](C)NC(=O)[C@H](CC(C)C)NC(=O)[C@H](CCCNC(=N)N)NC(=O)[C@H](CCC(N)=O)NC(=O)[C@@H](NC(=O)[C@H](C)NC(=O)[C@@H]1CSSC[C@H](NC(=O)[C@H](CCCCN)NC(=O)[C@H](CCCNC(=N)N)NC(=O)CC[C@H](NC(=O)CCCCCCCCCCCCCCCCCCC(=O)O)C(=O)O)C(=O)N[C@@H](CC(N)=O)C(=O)N[C@@H]([C@@H](C)O)C(=O)N[C@@H](C)C(=O)N[C@@H]([C@@H](C)O)C(=O)N1)[C@@H](C)O [Compound 86, [19CD]-isoGlu-RKC()NTATC()ATQRLAEFLHRSSNNF-Gly(Me)-A-Ile(Me)-LSSTNVGSNTP-NH2] ({C20 diacid-γGlu}-RKCNTATCATQRLAEFLHRSSNNF[Sar]A[NMeI]LSSTNVGSNTP-NH2; disulfide 3-8)	0.065 nM	SS (SS indicates solubility ≥ 1mg/ml)	SS (SS indicates solubility ≥ 1mg/ml)	SS (SS indicates solubility ≥ 1mg/ml)	SS (SS indicates solubility ≥ 1mg/ml)	SS (SS indicates solubility ≥ 1mg/ml)	SS (SS indicates solubility ≥ 1mg/ml)	SS (SS indicates solubility ≥ 1mg/ml)
CC[C@H](C)[C@@H](C(=O)N[C@@H](CC(C)C)C(=O)N[C@@H](CO)C(=O)N[C@@H](CO)C(=O)N[C@H](C(=O)N[C@@H](CC(N)=O)C(=O)N[C@H](C(=O)NCC(=O)N[C@@H](CO)C(=O)N[C@@H](CC(N)=O)C(=O)N[C@H](C(=O)N1CCC[C@H]1C(N)=O)[C@@H](C)O)C(C)C)[C@@H](C)O)N(C)C(=O)[C@H](C)NC(=O)CN(C)C(=O)[C@H](Cc1ccccc1)NC(=O)[C@H](CC(N)=O)NC(=O)[C@H](CC(N)=O)NC(=O)[C@H](CO)NC(=O)[C@H](CO)NC(=O)[C@H](CCCNC(=N)N)NC(=O)[C@H](Cc1c[nH]cn1)NC(=O)[C@H](CC(C)C)NC(=O)[C@H](Cc1ccccc1)NC(=O)[C@H](CCC(=O)O)NC(=O)[C@H](C)NC(=O)[C@H](CC(C)C)NC(=O)[C@H](CCCNC(=N)N)NC(=O)[C@H](CCC(N)=O)NC(=O)[C@@H](NC(=O)[C@H](C)NC(=O)[C@@H]1CSSC[C@H](NC(=O)[C@H](CCCCN)NC(=O)[C@H](Cc2c[nH]cn2)NC(=O)CC[C@H](NC(=O)CCCCCCCCCCCCCCCCCCC(=O)O)C(=O)O)C(=O)N[C@@H](CC(N)=O)C(=O)N[C@@H]([C@@H](C)O)C(=O)N[C@@H](C)C(=O)N[C@@H]([C@@H](C)O)C(=O)N1)[C@@H](C)O [Compound 88, [19CD]-isoGlu-HKC()NTATC()ATQRLAEFLHRSSNNF-Gly(Me)-A-Ile(Me)-LSSTNVGSNTP-NH2] ({C20 diacid-γGlu}-HKCNTATCATQRLAEFLHRSSNNF[Sar]A[NMeI]LSSTNVGSNTP-NH2; disulfide 3-8)	0.069 nM	SS (SS indicates solubility ≥ 1mg/ml)	SS (SS indicates solubility ≥ 1mg/ml)	SS (SS indicates solubility ≥ 1mg/ml)	SS (SS indicates solubility ≥ 1mg/ml)	SS (SS indicates solubility ≥ 1mg/ml)	SS (SS indicates solubility ≥ 1mg/ml)	SS (SS indicates solubility ≥ 1mg/ml)
CC[C@H](C)[C@@H](C(=O)N[C@@H](CC(C)C)C(=O)N[C@@H](CO)C(=O)N[C@@H](CO)C(=O)N[C@H](C(=O)N[C@@H](CC(N)=O)C(=O)N[C@H](C(=O)NCC(=O)N[C@@H](CO)C(=O)N[C@@H](CC(N)=O)C(=O)N[C@H](C(=O)N1CCC[C@H]1C(N)=O)[C@@H](C)O)C(C)C)[C@@H](C)O)N(C)C(=O)[C@H](C)NC(=O)CN(C)C(=O)[C@H](Cc1ccccc1)NC(=O)[C@H](CC(N)=O)NC(=O)[C@H](CC(N)=O)NC(=O)[C@H](CO)NC(=O)[C@H](CO)NC(=O)[C@H](CCCNC(=N)N)NC(=O)[C@H](Cc1c[nH]cn1)NC(=O)[C@H](CC(C)C)NC(=O)[C@H](Cc1ccccc1)NC(=O)[C@H](CCC(=O)O)NC(=O)[C@H](C)NC(=O)[C@H](CC(C)C)NC(=O)[C@H](CCCNC(=N)N)NC(=O)[C@H](CCC(N)=O)NC(=O)[C@@H](NC(=O)[C@H](C)NC(=O)[C@@H]1CSSC[C@H](NC(=O)[C@H](CCCNC(=N)N)NC(=O)CC[C@H](NC(=O)CCCCCCCCCCCCCCCCC(=O)O)C(=O)O)C(=O)N[C@@H](CC(N)=O)C(=O)N[C@@H]([C@@H](C)O)C(=O)N[C@@H](C)C(=O)N[C@@H]([C@@H](C)O)C(=O)N1)[C@@H](C)O [Compound 89, [17CD]-isoGlu-RC()NTATC()ATQRLAEFLHRSSNNF-Gly(Me)-A-Ile(Me)-LSSTNVGSNTP-NH2] ({C18 diacid-γGlu}-RCNTATCATQRLAEFLHRSSNNF[Sar]A[NMeI]LSSTNVGSNTP-NH2; disulfide 2-7)	0.054 nM	SS (SS indicates solubility ≥ 1mg/ml)	SS (SS indicates solubility ≥ 1mg/ml)	SS (SS indicates solubility ≥ 1mg/ml)	SS (SS indicates solubility ≥ 1mg/ml)	SS (SS indicates solubility ≥ 1mg/ml)	SS (SS indicates solubility ≥ 1mg/ml)	SS (SS indicates solubility ≥ 1mg/ml)
